Test results: PMC6615598, “Novel antibiotics effective against gram-positive and -negative multi-resistant bacteria with limited resistance” (PLoS Biology, 2019)
Values joined by “and” are separate entries in the source; they are usually repeats but may differ in a detail not shown here. Identical values can stand only once. Like-named read-outs stand apart in the source and are kept apart here. Starred links: 1 amine or outer side, 2 acyl side, 3 side chain; linkers in the order of their positions; H or OH if unused. Non-standard residues stand in square brackets, D forms with d. Residues, ends and D or L forms follow the SMILES beside them. azaβ3(1Nal) = O=C(CN(Cc1cccc2ccccc12)N[*:1])[*:2]

What was measured:
S. aureus MRSA = test: Cutaneous abscess mouse model (lesion size, CFU); type: in vivo, mice
Method: For the cutaneous abscess model, the mice were randomly divided into 5 sets. The mice were anesthetized with isoflurane, their dorsal fur shaved, and their skin disinfected with 70% ethanol. An overnight culture of S. aureus MRSA or P. aeruginosa LESB58 was washed with 0.9% NaCl, and then a subcutaneous injection of 2 × 10^9 CFUs and an equal amount of sterile Cytodex microcarrier beads (20 mg.ml^−1, Sigma) for S. aureus MRSA, or 10^8 CFUs for P. aeruginosa were injected into the shaved area. […] Mice were monitored every day and then euthanized with CO2 on Day 6 or on Day 3. Abscesses were excised, measured, and homogenized in PBS using an Ultra-Turax. Serial dilutions of the samples were plated on BHI (MRSA) or 2YT medium (LESB58) plates and then incubated overnight at 37°C. Afterward, the CFUs were counted and expressed as log CFU/ml. Dermonecrosis areas were calculated according to the formula π × L × W. ATP levels were determined with an ATP assay kit (Promega) according to manufacturer instructions on sets of 5 colonies harboring the SCV phenotype, and sets of 5 colonies harboring a normal phenotype, after growth on BHI plates.

E. coli ML-35p = test: Outer membrane permeability, nitrocefin cleavage; type: cell-based; conditions: concentration near MIC
Method: Outer and inner membrane permeability was determined on E. coli ML-35p, a lactose permease-deficient strain [8]. Permeation assays were carried out on 100 μl MHB from bacteria cultures grown to 0.15 OD600 (10^7 CFU/ml). Nitrocefin (20 μg/ml) was added to the tested molecules at a concentration near to their MICs, and cleavage was monitored by light absorption at 500 nm (outer membrane monitoring). Inner membrane monitoring of cleavage of ONPG (100 μg/ml) and substrate was monitored at 420 nm. Polymyxin B was a positive control, while a bacterial suspension in MHB was the negative control. Permeation assays were also performed on gram-positive S. aureus membranes (MSSA and MRSA) by fluorescence assay with SYTO Green nucleic acid stain (Life Technologies) in black flat-bottom 96-well microtiter plates (Greiner) in biological triplicate. Bacteria were grown to 0.3–0.4 OD600 in CAMHB at 37°C and centrifuged at 3,500 tr/min for 10 min. The pellet was washed and dissolved in PBS to an absorbance of 0.4 at 600 nm (approximately 2.10^8 CFU/ml). […] The amount of 50 μL of bacteria/SYTO Green mixture was added to each well containing compounds serially diluted in PBS, and fluorescence was measured at 37°C for up to 12 h using a spectrophotometer (BIOTEK, Tungsten-Halogen Lamp) with 485 nm excitation and 525 nm emission wavelengths.

[1] = design: species or system mice; conditions: mouse, in vivo, iv
Method: Control embryos were injected with 1 nl of water. […] Each animal was checked for mortality twice per day. […] RBCs were washed until the supernatant was clear. […] RBCs in PBS were a negative control without hemolysis.
Supplementary file pbio.3000337.s011.docx: S5 Table Mice toxicity assays. Clinical signs observed on Day 1 after IV administration of each of the peptide and pseudopeptides in sets of 3 mice. Not observed symptoms are marked with a dash. (DOCX) Click here for additional data file.

[2] = mice, MRSA subcutaneous, single IV 1.5 mg.kg^−1 at 24 h, 6 days post infection

Compound: CC(C)[C@@H]1NC(=O)[C@H](CCCNC(=N)N)NC(=O)[C@H](CCCNC(=N)N)NC(=O)CN(Cc2cccc3ccccc23)NC(=O)[C@H](Cc2ccccc2)NC(=O)CN(Cc2cccc3ccccc23)NC(=O)[C@H](CCCCN)NC1=O [Pep19] (cyclo([azaβ3(1Nal)]F[azaβ3(1Nal)]RRVK))
- CFU counts per abscess, SCV (S. aureus MRSA; cutaneous abscesses from MRSA in mice, IV 24 h post-infection, 1.5 mg.kg-1, SCV, individual values): 5.62 log Cfu/ml and 5.85 log Cfu/ml and 5.73 log Cfu/ml and 5.93 log Cfu/ml and 5.11 log Cfu/ml and 4.73 log Cfu/ml and 4.55 log Cfu/ml and 5.5 log Cfu/ml and 5.67 log Cfu/ml
- Area of dermonecrosis (S. aureus MRSA; cutaneous abscesses from MRSA in mice, IV 24 h post-infection, 1.5 mg.kg-1, individual values): 165.8 mm2 and 78.8 mm2 and 98.9 mm2 and 174.7 mm2 and 106.7 mm2 and 160.2 mm2 and 96.4 mm2 and 106.4 mm2 and 176.2 mm2
- Bacterial content of skin abscess (S. aureus MRSA; [2]): strong reduction
- Skin abscess volume (S. aureus MRSA; [2]): strong reduction
- Outer membrane permeation (E. coli ML-35p): most active
- Abdominal breathing, mice with sign [1]: -
- Half-closed eyes, mice with sign [1]: -
- Hindlimbs widespread, mice with sign [1]: 1
- Piloerection, mice with sign [1]: 3
- Abdominal breathing, mice with sign ([1]; 2 mg/kg): -
- Decreased grasping reflex, mice with sign ([1]; 2 mg/kg): -
- Dyspnea, mice with sign ([1]; 2 mg/kg): -
- Half-closed eyes, mice with sign ([1]; 2 mg/kg): -
- Hunched posture, mice with sign ([1]; 2 mg/kg): 1
- Hypoactivity, mice with sign ([1]; 2 mg/kg): 1
- Hypotonia, mice with sign ([1]; 2 mg/kg): -
- Piloerection, mice with sign ([1]; 2 mg/kg): 3
- Red-colored ears, mice with sign ([1]; 2 mg/kg): -
- Red-colored eyes, mice with sign ([1]; 2 mg/kg): -
- Staggering gait, mice with sign ([1]; 2 mg/kg): 1
- Sudden startle, mice with sign ([1]; 2 mg/kg): -
- Decreased grasping reflex, mice with sign ([1]; […]): -
- Half-closed eyes, mice with sign ([1]; […]): -
- Hypotonia, mice with sign ([1]; […]): -
- Piloerection, mice with sign ([1]; […]): 3
- Red-colored ears, mice with sign ([1]; […]): -
- Red-colored eyes, mice with sign ([1]; […]): -
